Experimental data: patent publication US20100197714A1, “SPIRO-PYRANO-PYRAZOLE DERIVATIVES” (priority 2007, published 2010)

How the values were obtained:
σ1-receptor [1] = biological target: T1, σ1-receptor (Cavia porcellus, UniProt Q60492); test: Sigma 1 (Version B) radioligand binding, [3H]-(+)-pentazocine, guinea pig brain preparation; parameters: the σ1-receptor preparation was prepared from guinea pig brain; from tissue; host or cells: guinea pig brain membrane homogenate
Protocol: In brief the σ1-receptor preparation was prepared from guinea pig brain. The brains were homogenized in 5 to 6 times of volume sucrose solution (0.32M) and homogenized. The homogenate was centrifuged at 2900 rpm, 4° C., 10 min). the supernatant was centrifuged again (23500×g, 4° C., 20 min). The pellet was resuspended in Tris-buffer, incubated for 30 min at room temperature and centrifuged f (23500×g, 4° C., 20 min). The pellet was resuspended in cold TRIS-buffer and homogenized. Then the protein content was measured (approx. 1.5 mg/mL) and the homogenate frozen at −80° C. for later use.
The radioligand used was […]-(+)-Pentazocin in TRIS-buffer. In a volume of 200 μL 50 μL TRIS-buffer, 50 μL compound solution of varying concentration, 50 μL radioligand-solution (8 nM; resulting in 2 nM in the assay) and finally 50 μL of receptor preparation (approx. 1.5 mg/mL) were given into a well of a microplate equipped with a filter. The plate was closed and stirred for 2.5 h at 37° C. and 500 rpm. Following that the solvents were removed by a harvester through the filter. After rinsing with H2O the filter was measured in a scintillation counter ([^3H]-protocol).

σ2-receptor = biological target: T2, σ2-receptor (Rattus norvegicus, UniProt Q5U3Y7); test: Sigma 2 (Version B) radioligand binding, [3H]-ditolylguanidine, rat liver preparation, σ1 sites masked with (+)-pentazocine; settings: for Ki: [3H]-ditolylguanidine 3 nM; for inhibition at 1 µM: compound at 1 μM
T2 construct: the σ2-Receptorpreparation was prepared from rat liver; from tissue; host or cells: rat liver membrane homogenate
T2 sequence (Q5U3Y7 1-176): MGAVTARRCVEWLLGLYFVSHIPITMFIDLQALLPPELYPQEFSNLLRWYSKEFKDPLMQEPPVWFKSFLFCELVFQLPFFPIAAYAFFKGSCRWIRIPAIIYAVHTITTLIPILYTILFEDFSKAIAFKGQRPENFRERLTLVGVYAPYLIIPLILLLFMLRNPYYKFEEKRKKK
Protocol: In brief the σ2-Receptorpreparation was prepared from rat liver. The livers were homogenized in 5 to 6 times of volume sucrose solution (0.32M) and homogenized. The homogenate was centrifuged at 2900 rpm, 4° C., 10 min). the supernatant was centrifuged again (31000×g, 4° C., 20 min). The pellet was resuspended in TRIS-buffer, incubated for 30 min at room temperature while stirring and centrifuged f (31000×g, 4° C., 20 min). The pellet was resuspended in cold TRIS-buffer pH 8 and homogenized. Then the protein content was measured (approx. 2 mg/mL) and the homogenate frozen at −80° C. for later use.
The radioligand used was [^3H]-Ditolylguanidin in TRIS-buffer pH 8. The σ1-receptor binding sites were masked through (+)-Pentazocin-solution in TRIS-Puffer pH 8.
In a volume of 200 μL 50 μL compound solution of varying concentration, 50 μL (+)-Pentazocin-solution (2 μM; resulting in 500 nM in the assay), 50 μL radioligand-solution (12 nM; resulting in 3 nM in the assay) and finally 50 μL of receptor preparation (approx. 2 mg/mL) were given into a well of a microplate equipped with a filter. The plate was closed and stirred for 2 h at room temperature and 500 rpm. Following that the solvents were removed by a harvester through the filter. After rinsing with H2O the filter was measured in a scintillation counter ([^3H]-protocol).

σ1-receptor [2] = biological target: T1, σ1-receptor; test: Sigma-1 (Version A) radioligand binding, [3H](+)-pentazocine, guinea pig brain membranes
Protocol: Brain membrane preparation and binding assays for the σ1-receptor were performed as described (DeHaven-Hudkins et al., 1992) with some modifications. In brief, guinea pig brains were homogenized in 10 vols. […] The homogenate was centrifuged at 1000 g for 10 min at 4° C. and the supernatants collected and centrifuged again at 48000 g for 15 min at 4° C.
Each assay tube contained 10 μL of [^3H](+)-pentazocine (final concentration of 0.5 nM), 900 μL of the tissue suspension to a final assay volume of 1 mL and a final tissue concentration of approximately 30 mg tissue net weight/mL. […] All tubes were incubated at 37° C. for 150 min before termination of the reaction by rapid filtration over Schleicher & Schuell GF 3362 glass fibre filters [previously soaked in a solution of 0.5% polyethylenimine for at least 1 h]. […] Following addition of scintillation cocktail, the samples were allowed to equilibrate overnight. The amount of bound radioactivity was determined by liquid scintillation spectrometry using a Wallac Winspectral 1414 liquid scintillation counter.

[3] = version B, guinea pig brain, [3H]-(+)-pentazocine 2 nM, read-out: Binding σ1 Ki

T1 sequence (Q60492 whole entry): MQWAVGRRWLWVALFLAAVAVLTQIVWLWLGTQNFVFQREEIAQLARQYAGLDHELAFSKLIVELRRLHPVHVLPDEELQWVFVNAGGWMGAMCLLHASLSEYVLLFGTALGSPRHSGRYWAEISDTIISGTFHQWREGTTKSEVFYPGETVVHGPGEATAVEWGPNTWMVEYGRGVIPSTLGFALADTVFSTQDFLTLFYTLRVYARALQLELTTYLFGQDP

| Structure (SMILES) | Ki (σ1-receptor [1]; [3]) [nM] | Ki (σ2-receptor) [nM] | Ki (σ1-receptor [2]) [nM] | inhibition at 1 µM (σ2-receptor) [%] | Ki (σ1-receptor [1]) [nM] |
| --- | --- | --- | --- | --- | --- |
| c1ccc(-n2ncc3c2CCOC32CCN(CC3CCCCC3)CC2)cc1 [Example 38, 1-(Cyclohexan-1-ylmethyl)-1-phenyl-6′,7′-dihydro-1′H-spiro[piperidin-4,4′-pyrano[4,3-c]pyrazole]] | 0.43 | 42.8 | – | – | – |
| CCCCN1CCC2(CC1)OC(OC)c1c2cnn1-c1ccccc1 (stereo not drawn) [Example 4, 1-Butyl-6′-methoxy-1′-phenyl-4′,6′-dihydro-1′H-spiro[piperidin-4,4′-furo[3,4-c]pyrazole]] | 1.28 | 1050 | 1.2 | – | – |
| COC1OC2(CCNCC2)c2cnn(-c3ccccc3)c21 (stereo not drawn) [Example 2, 6′-Methoxy-1′-phenyl-4′,6′-dihydro-1′H-spiro[piperidin-4,4′-furo[3,4-c]pyrazole]] | 1200 | – | – | 12 | – |
| CCCCN1CCC2(CC1)OC(OC)Cc1c2cnn1-c1ccccc1 (stereo not drawn) [Example 9, 1-Butyl-6′-methoxy-1′-phenyl-6′,7′-dihydro-1′H-spiro[piperidin-4,4′-pyrano[4,3-c]pyrazole]] | – | 752 | – | – | 8.04 |
| CC(C)CCN1CCC2(CC1)OCCc1c2cnn1C [Example 39, 1-Isopentyl-1′-methyl-6′,7′-dihydro-1′H-spiro[piperidin-4,4′-pyrano[4,3-c]pyrazole]] | 29.9 | – | – | 27 | – |
| c1ccc(CN2CCC3(CC2)OCCc2c3cnn2-c2ccccc2)cc1 [Example 34, 1-Benzyl-1′-phenyl-6′,7′-dihydro-1′H-spiro[piperidin-4,4′-pyrano[4,3-c]pyrazole]] | – | 773 | – | – | 1.71 |
| COC1Cc2c(cnn2-c2ccccc2)C2(CCN(CCCc3ccccc3)CC2)O1 (stereo not drawn) [Example 17, 6′-Methoxy-1′-phenyl-1-(3-phenylpropyl)-6′,7′-dihydro-1′H-spiro[piperidin-4,4′-pyrano[4,3-c]pyrazole]] | – | 833 | – | – | 3.24 |
| c1ccc(CCCN2CCC3(CC2)OCCc2c3cnn2-c2ccccc2)cc1 [Example 37, 1-Phenylpropyl-1′-phenyl-6′,7′-dihydro-1′H-spiro[piperidin-4,4′-pyrano[4,3-c]pyrazole]] | – | 102 | – | – | – |
| C1=Cc2c(cnn2-c2ccccc2)C2(CCN(Cc3ccccc3)CC2)O1 [Example 33, 1-Benzyl-1′-phenyl-1′H-spiro[piperidin-4,4′-pyrano[4,3-c]pyrazole]] | – | 557 | – | – | 1.48 |
| COC1Cc2c(cnn2C)C2(CCN(Cc3ccccc3)CC2)O1 (stereo not drawn) [Example 22, 1-Benzyl-6′-methoxy-1′-methyl-6′,7′-dihydro-1′H-spiro[piperidin-4,4′-pyrano[4,3-c]pyrazole]] | – | – | – | 0 | 21.4 |
| COC1Cc2c(cnn2-c2ccccc2)C2(CCN(C(C)C)CC2)O1 (stereo not drawn) [Example 8, 1-Isopropyl-6′-methoxy-1′-phenyl-6′,7′-dihydro-1′H-spiro[piperidin-4,4′ pyrano[4,3-c]pyrazole]] | – | 3210 | > 100 | – | – |
| CC(C)CCN1CCC2(CC1)OCCc1c2cnn1-c1ccccc1 [Example 35, 1-Isopentyl-1′-phenyl-6′,7′-dihydro-1′H-spiro[piperidin-4,4′-pyrano[4,3-c]pyrazole]] | 0.98 | 83.3 | – | – | – |
| COc1ccc(CN2CCC3(CC2)OC(OC)Cc2c3cnn2-c2ccccc2)cc1 (stereo not drawn) [Example 20, 6′-Methoxy-1-(4-methoxybenzyl)-1′-phenyl-6′,7′-dihydro-1′H-spiro[piperidin-4,4′-pyrano[4,3-c]pyrazole]] | – | 925 | – | – | 1.54 |
| COC1Cc2c(cnn2C)C2(CCN(CCCc3ccccc3)CC2)O1 (stereo not drawn) [Example 24, 6′-Methoxy-1′-methyl-1-(3-phenylpropyl)-6′,7′-dihydro-1′H-spiro[piperidin-4,4′-pyrano[4,3-c]pyrazole]] | – | 1730 | – | – | 92.7 |
| Cn1ncc2c1CC(O)OC21CCN(Cc2ccccc2)CC1 (stereo not drawn) [Example 28, 1-Benzyl-1′-methyl-6′,7′-dihydro-1′H-spiro[piperidin-4,4′-pyrano[4,3-c]pyrazole]-6′-ol] | – | – | – | 21 | 190 |
| COC1Cc2c(cnn2-c2ccccc2)C2(CCN(CC(C)C)CC2)O1 (stereo not drawn) [Example 10, 1-Isobutyl-6′-methoxy-1′-phenyl-6′,7′-dihydro-1′H-spiro[piperidin-4,4′-pyrano[4,3-c]pyrazole]] | – | 933 | 9.4 | – | – |
| COC1Cc2c(cnn2-c2ccccc2)C2(CCN(Cc3ccccc3)CC2)O1 (stereo not drawn) [Example 5, 1-Benzyl-6′-methoxy-1′-phenyl-6′,7′-dihydro-1′H-spiro[piperidin-4,4′-pyrano[4,3-c]pyrazole]] | – | – | – | 22 | 1.46 |
| CC(C)=CCN1CCC2(CC1)OCCc1c2cnn1C [Example 40, 1-(Methylbut-2-en-1-yl)-1′-methyl-6′,7′-dihydro-1′H-spiro[piperidin-4,4′-pyrano[4,3-c]pyrazole]] | – | – | – | 49 | – |
| CCCN1CCC2(CC1)OC(OC)Cc1c2cnn1C (stereo not drawn) [Example 27, 6′-Methoxy-1′-methyl-1-propyl-6′,7′-dihydro-1′H-spiro[piperidin-4,4′-pyrano[4,3-c]pyrazole]] | – | – | – | 0 | – |
| COC1Cc2c(cnn2-c2ccccc2)C2(CCN(CCc3ccccc3)CC2)O1 (stereo not drawn) [Example 16, 6′-Methoxy-1′-phenyl-1-(2-phenylethyl)-6′,7′-dihydro-1′H-spiro[piperidin-4,4′-pyrano[4,3-c]pyrazole]] | – | 570 | – | – | 2.73 |
| Cn1ncc2c1CCOC21CCN(Cc2ccccc2)CC1 [Example 30, 1-Benzyl-1′-methyl-6′,7′-dihydro-1′H-spiro[piperidin-4,4′-pyrano[4,3-c]pyrazole]] | – | 191 | – | – | 9.18 |
| COC1OC2(CCN(Cc3ccccc3)CC2)c2cnn(-c3ccccc3)c21 (stereo not drawn) [Example 3, 1-Benzyl-6′-methoxy-1′-phenyl-4′,6′-dihydro-1′H-spiro[piperidin-4,4′-furo[3,4-c]pyrazole]] | – | 1750 | 2.7 | – | – |
| Cn1ncc2c1CCOC21CCN(CCCc2ccccc2)CC1 [Example 41] | 17.4 | 1070 | – | – | – |
| COC1Cc2c(cnn2C)C2(CCN(CCC(C)C)CC2)O1 (stereo not drawn) [Example 26, 1-Isopentyl-6′-methoxy-1′-methyl-6′,7′-dihydro-1′H-spiro[piperidin-4,4′-pyrano[4,3-c]pyrazole]] | – | – | – | 22 | 17.8 |
| OC1Cc2c(cnn2-c2ccccc2)C2(CCN(Cc3ccccc3)CC2)O1 (stereo not drawn) [Example 32, 1-Benzyl-1′-phenyl-6′,7′-dihydro-1′H-spiro[piperidin-4,4′-pyrano[4,3-c]pyrazole]-6′-ol] | – | – | – | 41 | 27.1 |
| CC(C)=CCN1CCC2(CC1)OCCc1c2cnn1-c1ccccc1 [Example 36, 1-(Methylbut-2-en-1-yl)-1′-phenyl-6′,7′-dihydro-1′H-spiro[piperidin-4,4′-pyrano[4,3-c]pyrazole]] | – | 269 | – | – | 0.97 |
| Cn1ncc2c1C=COC21CCN(Cc2ccccc2)CC1 [Example 29, 1-Benzyl-1′-methyl-1′H-spiro[piperidin-4,4′-pyrano[4,3-c]pyrazole]] | – | 429 | – | – | 11.8 |
| CCCCCN1CCC2(CC1)OC(OC)Cc1c2cnn1-c1ccccc1 (stereo not drawn) [Example 11, 6′-Methoxy-1-pentyl-1′-phenyl-6′,7′-dihydro-1′H-spiro[piperidin-4,4′-pyrano[4,3-c]pyrazole]] | – | 340 | – | – | 0.82 |
| COC1Cc2c(cnn2C)C2(CCN(Cc3ccc(F)cc3)CC2)O1 (stereo not drawn) [Example 25, 1-(4-Fluorbenzyl)-6′-methoxy-1′-methyl-6′,7′-dihydro-1′H-spiro[piperidin-4,4′-pyrano[4,3-c]pyrazole]] | – | – | – | 46 | 21.1 |
| CCCN1CCC2(CC1)OC(OC)Cc1c2cnn1-c1ccccc1 (stereo not drawn) [Example 7, 6′-Methoxy-1′-phenyl-1-propyl-6′,7′-dihydro-1′H-spiro[piperidin-4,4′-pyrano[4,3-c]pyrazole]] | – | 3030 | – | – | – |
